Legend:
[1] = biological target: T1, Oxysterols receptor LXR-beta (Homo sapiens, UniProt P55055)
T1 sequence (P55055 whole entry): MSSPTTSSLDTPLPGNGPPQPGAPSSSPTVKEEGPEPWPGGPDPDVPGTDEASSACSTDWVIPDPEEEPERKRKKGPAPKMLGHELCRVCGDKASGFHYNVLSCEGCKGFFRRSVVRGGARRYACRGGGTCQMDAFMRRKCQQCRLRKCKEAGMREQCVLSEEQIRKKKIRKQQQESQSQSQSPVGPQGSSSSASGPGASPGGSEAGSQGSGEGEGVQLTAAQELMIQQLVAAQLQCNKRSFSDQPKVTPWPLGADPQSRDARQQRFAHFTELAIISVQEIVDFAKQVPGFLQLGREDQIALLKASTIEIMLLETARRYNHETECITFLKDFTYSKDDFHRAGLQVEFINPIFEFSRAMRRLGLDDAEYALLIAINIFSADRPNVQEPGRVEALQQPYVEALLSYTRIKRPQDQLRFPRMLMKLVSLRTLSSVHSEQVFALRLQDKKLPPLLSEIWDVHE

[2] = biological target: T2, Oxysterols receptor LXR-alpha (Homo sapiens, UniProt Q13133)
T2 sequence (Q13133 whole entry): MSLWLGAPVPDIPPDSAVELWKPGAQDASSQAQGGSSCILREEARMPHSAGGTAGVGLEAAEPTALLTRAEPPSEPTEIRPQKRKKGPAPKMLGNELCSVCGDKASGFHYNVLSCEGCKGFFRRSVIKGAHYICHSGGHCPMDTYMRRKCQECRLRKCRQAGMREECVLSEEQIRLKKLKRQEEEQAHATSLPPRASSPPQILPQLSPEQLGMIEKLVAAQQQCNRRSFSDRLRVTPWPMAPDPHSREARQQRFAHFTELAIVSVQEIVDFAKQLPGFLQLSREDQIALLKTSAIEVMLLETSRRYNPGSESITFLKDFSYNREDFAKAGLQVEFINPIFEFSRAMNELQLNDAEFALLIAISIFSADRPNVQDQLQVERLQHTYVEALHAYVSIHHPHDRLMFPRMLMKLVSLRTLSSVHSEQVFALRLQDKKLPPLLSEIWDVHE

| Compound | Ki [1] [µM] | Ki [2] [µM] |
| --- | --- | --- |
| CC(C)(O)C1OC2CCC3(C)C(O)(CCC4Cc5c([nH]c6ccccc56)C43C)C2=CC1=O (stereo not drawn) [CAS_57186-25-1] | 1.1 |  |
| CC(C)CC[C@H](O)[C@@H](C)[C@H]1CC[C@H]2[C@@H]3CC=C4C[C@@H](O)CC[C@]4(C)[C@H]3CC[C@]12C [(1S,2R,5S,10S,11S,14R,15S)-14-[(2S,3S)-3-hydroxy-6-methylheptan-2-yl]-2,15-dimethyltetracyclo[8.7.0.0^{2,7}.0^{11,15}]heptadec-7-en-5-ol] | 0.49 | 0.25 |

— BindingDB's records for doi:10.1124/jpet.103.052852 (Eli Lilly, 2003)
